Data set [1] in a line: Brain exposure pharmacokinetics in rats. Format: in vivo. The note with it: male Sprague Dawley rats, oral gavage 10 mg/kg. As for the experimental part: The brain exposure of exemplary compounds, e.g., 1, 2, and 4 were evaluated in male Sprague Dawley rats after oral gavage administration at 10 mg/kg. The formulation was 5% DMSO+10% PEG400 in saline. Rats were fasted overnight with food returned 4 hours post-dose. CSF was collected by direct needle puncture into the cisterna magna.
For both rat and mouse studies, brain tissue was washed with 3 volumes of saline prior to homogenization. Brain tissue was homogenized with 3 volumes (v/w) of phosphate buffered saline. Plasma, brain homogenate, and CSF samples (rat only) were analyzed by LC-MS/MS and the concentration of test compound at each time point was determined by linear regression.
Pharmacokinetic parameters were calculated from the plasma, brain, and CSF concentrations by non-compartmental modeling using WinNonlin 8.2.

A short description of another data set: Caco-2 permeability. Format: in vitro ADME. Particulars: human, Caco-2. As for the experimental part: (§1) Caco-2 cells were cultured for 21 days on a Transwell 96-well plate. The basal plate for changing the media was prepared by filling all wells of a 96-well sterile plate with 200 μL of Caco-2 media and placing it into an incubator. The apical section of the plate was lifted and lowered onto an empty basal plate. From the apical compartments containing 115 μL of cell media, 85 μL of the cell culture media was aspirated and replaced with 85 μL of fresh cell culture media. The basal plate was removed from the incubator and placed into a cell culture hood, while the apical section of the plate was returned to the basal plate and placed into the incubator.
(§2) Cells were fed one or two days prior to assay. A fresh basal plate was prepared by adding 200 μL of cell media to all wells and placing the plate in an incubator. The plate was then transferred from the incubator to the cell culture hood, where the apical compartment was lifted and placed onto an empty basal plate. 85 μL of media was removed from the apical wells and replaced with 85 μL of fresh media. The apical compartment of the plate was transferred to a basal plate and returned to the incubator.
(§3) On the day of the assay, 1 mL of 500-fold diluted compound solution was prepared in transport buffer. 62.5 μl of the prepared solution was used for the apical compartment, while 130 μl was used in the basal compartment. TEER measurements of the plate were taken. The dilutions were incubated for 15 minutes at 37° C. Basal assay plates were prepared by filling A→B wells of a 96-well sterile plate with 250 μl of transport buffer or B→A wells with 130 μl of diluted compound/control and 130 μl of HBSS and mixing 6-10 times with a multichannel pipette. 10 μl of samples were then collected form the basal compartments of the B→A wells for TO into the Quench Plates (shallow polypropylene plate, leaving 250 μl in each well). The basal assay plates were then placed into the incubator until use. The Caco-2 plate was placed in the hood and the apical section was lifted and placed onto an empty basal plate. 85 μl of the Caco-2 media was removed from the apical compartments containing 115 μl of cell culture media and replaced with 85 μl of fresh transport media. This was repeated twice for a total of 3 washes. 52.5 μl of buffer was then removed from the apical wells of the Caco-2 ready plates (leaving 62.5 μl buffer in the wells) and replaced with 62.5 of the diluted compound or control for the A→B wells or 52.5 μl of fresh transport buffer for the B→A wells. The total volume in the apical wells was assumed to be 125 μl for A→B and 115 μl for B→A. The apical wells were gently mixed 2-3 times with a multichannel pipette set to 50 μl and 10 μl of sample was collected from the apical compartments of A→B wells for TO into the TO Quench plates (shallow polypropylene plate). The total volume in all apical wells was 115 μl. The basal plate was removed from the incubator and transferred to the apical section of the basal plate and returned to the incubator. The TO samples were then diluted with 40 μl of transport buffer and 100 μl of quench solution was added. The cells were then kept cold. At T 2 hrs, 10 μl of sample was collected from all apical compartments and B→A basal compartments. 50 μl of sample was collected from the A→B compartments. The collected 10 μl of sample was then diluted with 40 μl of transport buffer. 100 μl of quench solution was then added to all T 2 hrs samples. After mixing, 50 μl of all TO and T 2 hrs samples were transferred to sample plates and diluted with 100 μl MilliQ water for bioanalysis. Final TEER measurements were taken after the completion of the assay.
For orientation: Passage across Caco-2 layers is used to estimate intestinal permeability.

The subject of another data set is Caco-2 cells. Briefly: Caco-2 permeability. The data set is classed as in vitro ADME. As to the method: as §1, §2, §3
Data set [2] can be described thus: GLP in vivo assay of genotoxicity.

As usually defined, the Papp A→B is how fast a substance crosses the layer from the apical side. A low value points to slow passage. For orientation: efflux ratio means the permeability from basolateral to apical divided by that in the opposite direction, in the common usage.

Entries after “also recorded” stand apart in the source; their conditions may differ. Read-outs that look alike come from different tables or passages of the source.

`C[C@@H](c1ccc(Nc2cc(Nc3ncccc3S(C)(=O)=O)ncn2)nc1)N1CC2(COC2)C1` [Compound 1, (S)—N^4-(5-(1-(2-oxa-6-azaspiro[3.3]heptan-6-yl)ethyl)pyridin-2-yl)-N^6-(3-(methylsulfonyl)pyridin-2-yl)pyrimidine-4,6-diamine]: the “Brain Kpu, u” value in data set [1] was “†† (†† 0.1-0.2 u)”. Besides, in the data set “Caco-2 permeability”, the apical-to-basolateral permeability (Papp A→B) at 2 h was around 6.02 ×10⁻⁶ cm/s and the efflux ratio at 2 h turned out to be 1.38. For the same compound, in the data set with Caco-2 cells, the “Caco-2 Papp, A-B” value was determined as 6.02 ×10⁻⁶ cm/s.

As to `C[C@@H](c1ccc(Nc2cc(Nc3ncc(F)cc3S(C)(=O)=O)ncn2)nc1)N1CC2(COC2)C1` [Compound 2, (S)—N^4-(5-(1-(2-oxa-6-azaspiro[3.3]heptan-6-yl)ethyl)pyridin-2-yl)-N^6-(5-fluoro-3-(methylsulfonyl)pyridin-2-yl)pyrimidine-4,6-diamine], the “Brain Kpu, u” value in data set [1] is recorded as “† († <0.1 u)”. Besides, in data set [2], the genotoxicity entry is “substantially no genotoxicity; also recorded: virtually no genotoxicity”. In data set [2] (listed as compound 2), the genotoxicity result was “substantially non-genotoxic”. In the data set “Caco-2 permeability”, the Papp A→B at 2 h is around 7.2 ×10⁻⁶ cm/s and the efflux ratio at 2 h came out at 2.2. In addition, the “Caco-2 Papp, A-B” value in the data set with Caco-2 cells amounted to 7.51 ×10⁻⁶ cm/s.
